{
  "source": "patent US6953812B2",
  "about": "“Glucagon antagonists/inverse agonists” (Novo Nordisk, Inc., priority 2000, dated 2005)",
  "key": {"[1]": {"target": "T1, human GIP receptor (Homo sapiens, UniProt P48546)", "T1 construct": "expressed in transfected cells; host or cells: BHK (baby hamster kidney) cells, membrane preparation", "T1 sequence (P48546 22-466)": "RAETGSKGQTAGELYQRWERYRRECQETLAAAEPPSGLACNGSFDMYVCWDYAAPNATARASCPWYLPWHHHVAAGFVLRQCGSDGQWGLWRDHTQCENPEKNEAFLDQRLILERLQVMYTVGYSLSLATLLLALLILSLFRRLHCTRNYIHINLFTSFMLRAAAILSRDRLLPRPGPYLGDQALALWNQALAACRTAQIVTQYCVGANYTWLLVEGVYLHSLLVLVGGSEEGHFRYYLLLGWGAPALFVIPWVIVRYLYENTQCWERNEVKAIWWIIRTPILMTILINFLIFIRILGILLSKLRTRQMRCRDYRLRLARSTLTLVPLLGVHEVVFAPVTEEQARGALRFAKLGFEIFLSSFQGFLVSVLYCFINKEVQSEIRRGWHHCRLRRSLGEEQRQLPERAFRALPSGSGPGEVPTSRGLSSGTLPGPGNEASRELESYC", "assay": "GIP Binding Assay", "details": "membranes of BHK cells transfected with human GIP receptor, 125I-GIP, SPA; read-out: GIP Bd Assay IC50", "how_it_was_run": "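Membranes from BHK cells transfected with human GIP receptor; competition binding in HEPES pH 7.5 buffer with Ca2+/Mg2+, compounds added in DMSO, WGA SPA beads. Incubated 3.5 h shaking, settled 8-48 h, then scintillation counted; non-specific binding defined with 500 nM GIP.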"}, "[2]": {"target": "T2, human glucagon receptor (Homo sapiens, UniProt P47871)", "T2 construct": "expressed in transfected cells; host or cells: BHK (baby hamster kidney) cells, membrane preparation", "T2 sequence (P47871 26-477)": "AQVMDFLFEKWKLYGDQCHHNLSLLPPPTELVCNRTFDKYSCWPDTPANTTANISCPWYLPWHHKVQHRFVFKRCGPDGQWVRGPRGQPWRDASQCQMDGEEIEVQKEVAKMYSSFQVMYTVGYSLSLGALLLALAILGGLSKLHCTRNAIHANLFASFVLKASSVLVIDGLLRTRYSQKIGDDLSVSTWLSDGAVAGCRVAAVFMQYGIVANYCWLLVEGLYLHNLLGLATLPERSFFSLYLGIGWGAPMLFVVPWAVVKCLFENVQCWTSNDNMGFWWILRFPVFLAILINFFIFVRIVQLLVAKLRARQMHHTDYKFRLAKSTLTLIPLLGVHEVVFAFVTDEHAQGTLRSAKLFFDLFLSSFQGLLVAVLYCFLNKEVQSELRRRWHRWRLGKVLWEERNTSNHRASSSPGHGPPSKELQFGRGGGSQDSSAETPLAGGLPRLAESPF", "assay": "Glucagon Binding Assay (II)", "how_it_was_run": "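Membranes from BHK cells transfected with the human glucagon receptor were incubated with test compound (in DMSO) in HEPES buffer pH 7.5 with Ca2+/Mg2+ and WGA beads for 4 h, then settled 8–48 h before scintillation counting. Non-specific binding was defined with 500 nM glucagon.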"}, "[3]": {"details": "membranes of BHK cells transfected with human glucagon receptor, 125I-glucagon, SPA, read-out: Glu Bd Assay (II) IC50"}},
  "note": "Read-outs that look alike come from different tables or passages of the source.",
  "data": [
    {"molecule": "CC(C)(C)[C@H]1CC[C@H](N(Cc2ccc(C(=O)NC[C@H](O)C(=O)O)cc2)C(=O)Nc2cc(C(F)(F)F)cc(C(F)(F)F)c2)CC1", "note": "[Example 13, (S)-Trans-3-{4-[3-(3,5-Bis(trifluoromethyl)phenyl)-1-(4-tert-butylcyclohexyl)ureidomethyl]benzoylamino}-2-hydroxypropionic acid]", "values": [
      {"measurement": "melting point", "value": "185 to 187", "unit": "°C"},
      {"measurement": "IC50", "setting": "[1]", "value": 0.7, "unit": "µM"},
      {"measurement": "IC50", "setting": "[2]; [3]", "value": 0.228, "unit": "µM"}
    ]},
    {"molecule": "CC(C)(C)[C@H]1CC[C@H](N(Cc2ccc(C(=O)NC[C@@H](O)C(=O)O)cc2)C(=O)Nc2cc(C(F)(F)F)cc(C(F)(F)F)c2)CC1", "note": "[Example 14, (R)-Trans-3-{4-[3-(3,5-bis(trifluoromethyl)phenyl)-1-(4-tert-butylcyclohexyl)ureidomethyl]benzoylamino}-2-hydroxypropionic acid]", "values": [
      {"measurement": "melting point", "value": "184 to 187", "unit": "°C"},
      {"measurement": "IC50", "setting": "[1]", "value": 0.274, "unit": "µM"},
      {"measurement": "IC50", "setting": "[2]; [3]", "value": 0.019, "unit": "µM"}
    ]},
    {"molecule": "CC(C)(C)C1CC=C(c2ccc(N(Cc3ccc(C(=O)NC[C@@H](O)C(=O)O)cc3)C(=O)Nc3cc(Cl)cc(Cl)c3)cc2)CC1", "note": "(stereo partly drawn) [Example 33, 3-{4-[1-[4-(4-tert-Butylcyclohex-1-enyl)phenyl]-3-(3,5-dichlorophenyl)ureidomethyl]benzoyl-amino}-2-(R)-hydroxypropionic Acid]", "values": [
      {"measurement": "melting point", "value": "151 to 155", "unit": "°C"},
      {"measurement": "IC50", "setting": "[1]", "value": 0.189, "unit": "µM"},
      {"measurement": "IC50", "setting": "[2]; [3]", "value": 0.012, "unit": "µM"}
    ]},
    {"molecule": "CC(C)(C)C1CCC(N(Cc2ccc(C(=O)NC[C@@H](O)C(=O)O)cc2)C(=O)c2csc3ccc(Cl)cc23)CC1", "note": "(stereo partly drawn) [Example 61, (R)-3-(4-{[(4-tert-Butylcyclohexyl)-(5-chlorobenzo[b]thiophene-3-carbonyl)amino]methyl}-benzoylamino)-2-hydroxypropionic acid]", "values": [
      {"measurement": "IC50", "setting": "[1]", "value": "> 3", "unit": "µM"},
      {"measurement": "IC50", "setting": "[2]; [3]", "value": 0.754, "unit": "µM"}
    ]},
    {"molecule": "O=C(NC[C@@H](O)C(=O)O)c1ccc(CN(CC(c2ccccc2)c2ccccc2)C(=O)c2cc3cc(OC(F)(F)F)ccc3[nH]2)cc1", "note": "[Example 62, (R)-3-(4-{[(2,2-Diphenylethyl)-(5-trifluoromethoxy-1H-indole-2-carbonyl)amino]methyl}-benzoylamino)-2-hydroxypropionic acid]", "values": [
      {"measurement": "IC50", "setting": "[1]", "value": "> 3", "unit": "µM"},
      {"measurement": "IC50", "setting": "[2]; [3]", "value": 0.757, "unit": "µM"}
    ]},
    {"molecule": "O=C(NC[C@@H](O)C(=O)O)c1ccc(CN(C(=O)Cc2ccc(OC(F)(F)F)cc2)c2ccc(C3CCCCC3)cc2)cc1", "note": "[Example 63, (R)-3-[4-({(4-Cyclohexylphenyl)-[(4-trifluoromethoxyphenyl)acetyl]amino}methyl)benzoylamino]-2-hydroxypropionic acid]", "values": [
      {"measurement": "IC50", "setting": "[1]", "value": "> 3", "unit": "µM"},
      {"measurement": "IC50", "setting": "[2]; [3]", "value": 0.336, "unit": "µM"}
    ]},
    {"molecule": "O=C(NC[C@@H](O)C(=O)O)c1ccc(CN(C(=O)Cc2cccc(OC(F)(F)F)c2)c2ccc(C3CCCCC3)cc2)cc1", "note": "[Example 64, (R)-3-[4-({(4-Cyclohexylphenyl)-[(3-trifluoromethoxyphenyl)acetyl]amino}methyl)benzoylamino]-2-hydroxypropionic acid]", "values": [
      {"measurement": "IC50", "setting": "[1]", "value": "> 3", "unit": "µM"},
      {"measurement": "IC50", "setting": "[2]; [3]", "value": 0.514, "unit": "µM"}
    ]},
    {"molecule": "O=C(NC[C@@H](O)C(=O)O)c1ccc(CN(C(=O)Cc2cc(F)cc(C(F)(F)F)c2)c2ccc(C3CCCCC3)cc2)cc1", "note": "[Example 65, (R)-3-[4-({(4-Cyclohexylphenyl)-[(3-fluoro-5-trifluoromethylphenyl)acetyl]amino}methyl)benzoylamino]-2-hydroxypropionic acid]", "values": [
      {"measurement": "IC50", "setting": "[1]", "value": "> 3", "unit": "µM"},
      {"measurement": "IC50", "setting": "[2]; [3]", "value": 0.52, "unit": "µM"}
    ]},
    {"molecule": "O=C(NC[C@@H](O)C(=O)O)c1ccc(CN(C(=O)Cc2cc(C(F)(F)F)cc(C(F)(F)F)c2)c2ccc(C3CCCCC3)cc2)cc1", "note": "[Example 66, (R)-3-(4-{([(3,5-Bis(trifluoromethyl)phenyl)acetyl]-(4-cyclohexylphenyl)amino)methyl}benzoylamino)-2-hydroxypropionic acid]", "values": [
      {"measurement": "IC50", "setting": "[1]", "value": "> 3", "unit": "µM"},
      {"measurement": "IC50", "setting": "[2]; [3]", "value": 0.325, "unit": "µM"}
    ]},
    {"molecule": "O=C(NC[C@@H](O)C(=O)O)c1ccc(CN(C(=O)Cc2cccc(C(F)(F)F)c2)c2ccc(C3CCCCC3)cc2)cc1", "note": "[Example 67, (R)-3-[4-({(4-Cyclohexylphenyl)-[(3-trifluoromethylphenyl)acetyl]amino}methyl)benzoylamino]-2-hydroxypropionic acid]", "values": [
      {"measurement": "IC50", "setting": "[1]", "value": "> 3", "unit": "µM"},
      {"measurement": "IC50", "setting": "[2]; [3]", "value": 0.52, "unit": "µM"}
    ]},
    {"molecule": "O=C(NC[C@@H](O)C(=O)O)c1ccc(CN(C(=O)Cc2ccc(Cl)c(Cl)c2)c2ccc(C3CCCCC3)cc2)cc1", "note": "[Example 68, (R)-3-[4-({(4-Cyclohexylphenyl)-[(3,4-dichlorophenyl)acetyl]amino}methyl)benzoylamino]-2-hydroxypropionic acid]", "values": [
      {"measurement": "IC50", "setting": "[1]", "value": "> 3", "unit": "µM"},
      {"measurement": "IC50", "setting": "[2]", "value": 0.528, "unit": "µM"}
    ]},
    {"molecule": "O=C(NC[C@@H](O)C(=O)O)c1ccc(CN(C(=O)Cc2cccc(Br)c2)c2ccc(C3CCCCC3)cc2)cc1", "note": "[Example 69, (R)-3-(4-{[[(3-Bromophenyl)acetyl]-(4-cyclohexylphenyl)amino]methyl}benzoylamino)-2-hydroxypropionic acid]", "values": [
      {"measurement": "IC50", "setting": "[1]", "value": "> 3", "unit": "µM"},
      {"measurement": "IC50", "setting": "[2]; [3]", "value": 0.43, "unit": "µM"}
    ]},
    {"molecule": "O=C(NC[C@@H](O)C(=O)O)c1ccc(CN(C(=O)Cc2ccc(-c3ccccc3)cc2)c2ccc(C3CCCCC3)cc2)cc1", "note": "[Example 70, (R)-3-(4-{[(Biphenyl-4-ylacetyl)-(4-cyclohexylphenyl)amino]methyl}benzoylamino)-2-hydroxypropionic acid]", "values": [
      {"measurement": "IC50", "setting": "[1]", "value": "> 3", "unit": "µM"},
      {"measurement": "IC50", "setting": "[2]; [3]", "value": 0.74, "unit": "µM"}
    ]},
    {"molecule": "O=C(NC[C@@H](O)C(=O)O)c1ccc(CN(C(=O)Cc2ccc3ccccc3c2)c2ccc(C3CCCCC3)cc2)cc1", "note": "[Example 71, (R)-3-(4-{[(4-Cyclohexylphenyl)-(2-naphthylacetyl)amino]methyl}benzoylamino)-2-hydroxypropionic acid]", "values": [
      {"measurement": "IC50", "setting": "[1]", "value": "> 3", "unit": "µM"},
      {"measurement": "IC50", "setting": "[2]; [3]", "value": 0.886, "unit": "µM"}
    ]},
    {"molecule": "O=C(NC[C@@H](O)C(=O)O)c1ccc(CN(C(=O)CCc2cc(C(F)(F)F)cc(C(F)(F)F)c2)c2ccc(C3CCCCC3)cc2)cc1", "note": "[Example 72, (R)-3-(4-{[(3-(3,5-Bis(trifluoromethyl)phenyl)propionyl)-(4-cyclohexylphenyl)amino]methyl}benzoylamino)-2-hydroxypropionic acid]", "values": [
      {"measurement": "IC50", "setting": "[1]", "value": "> 3", "unit": "µM"},
      {"measurement": "IC50", "setting": "[2]; [3]", "value": 0.542, "unit": "µM"}
    ]},
    {"molecule": "O=C(NC[C@@H](O)C(=O)O)c1ccc(CN(C(=O)CCc2cccc([N+](=O)[O-])c2)c2ccc(C3CCCCC3)cc2)cc1", "note": "[Example 73, (R)-3-[4-({(4-Cyclohexylphenyl)-[3-(3-nitrophenyl)propionyl]amino}methyl)benzoylamino]-2-hydroxypropionic acid]", "values": [
      {"measurement": "IC50", "setting": "[1]", "value": "> 3", "unit": "µM"},
      {"measurement": "IC50", "setting": "[2]; [3]", "value": 0.68, "unit": "µM"}
    ]}
  ]
}
